Experimental data from ChEMBL document CHEMBL5537172 (J Med Chem, 2024).
The source made the active and inactive calls. The rule behind the calls is not given here.

What was measured:
[1] = target: 5-hydroxytryptamine receptor 2B (Homo sapiens, UniProt P41595); assay: Agonist activity at 5HT2B (unknown origin); assay type: toxicity
cells = conditions: Homo sapiens, 92-1, 72 h
[2] = Dissociation constant, pKa of compound; assay type: physicochemical
[3] = target: T1, Receptor-type tyrosine-protein kinase FLT3 (Homo sapiens, UniProt P36888); assay: Inhibition of FLT3 (unknown origin); assay type: toxicity
T1 sequence (P36888 whole entry): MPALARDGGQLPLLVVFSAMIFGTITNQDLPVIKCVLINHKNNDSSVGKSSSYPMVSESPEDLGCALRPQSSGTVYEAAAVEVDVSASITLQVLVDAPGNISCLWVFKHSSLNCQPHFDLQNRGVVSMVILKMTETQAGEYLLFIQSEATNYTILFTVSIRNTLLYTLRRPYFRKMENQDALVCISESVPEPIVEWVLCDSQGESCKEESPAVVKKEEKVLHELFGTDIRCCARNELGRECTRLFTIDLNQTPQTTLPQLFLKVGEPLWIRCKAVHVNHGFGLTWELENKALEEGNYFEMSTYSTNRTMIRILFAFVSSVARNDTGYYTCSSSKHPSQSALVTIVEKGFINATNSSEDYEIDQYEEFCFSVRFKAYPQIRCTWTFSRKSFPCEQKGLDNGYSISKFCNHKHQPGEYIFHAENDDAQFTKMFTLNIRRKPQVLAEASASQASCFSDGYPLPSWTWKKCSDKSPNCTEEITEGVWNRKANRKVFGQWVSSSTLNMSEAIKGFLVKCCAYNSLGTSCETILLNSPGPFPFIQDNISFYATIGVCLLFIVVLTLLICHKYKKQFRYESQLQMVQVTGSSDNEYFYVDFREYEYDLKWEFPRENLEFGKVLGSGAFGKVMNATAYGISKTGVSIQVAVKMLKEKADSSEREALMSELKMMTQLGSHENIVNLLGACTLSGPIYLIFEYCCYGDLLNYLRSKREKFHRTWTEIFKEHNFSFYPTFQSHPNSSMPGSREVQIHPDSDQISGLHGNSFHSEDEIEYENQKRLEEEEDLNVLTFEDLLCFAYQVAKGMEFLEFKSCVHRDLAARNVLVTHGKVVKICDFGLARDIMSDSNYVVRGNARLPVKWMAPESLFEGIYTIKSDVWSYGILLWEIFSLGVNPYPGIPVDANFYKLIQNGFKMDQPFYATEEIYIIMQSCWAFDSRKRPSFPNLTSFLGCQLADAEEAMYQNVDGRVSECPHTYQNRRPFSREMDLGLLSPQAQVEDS

[4] = target: Glycogen synthase kinase-3 beta (Homo sapiens, UniProt P49841); assay: Inhibition of GSK3beta (unknown origin); assay type: toxicity
92-1 [5] = assay: Antitumor activity against human 92-1 cells xenografted in mouse assessed as tumor suppression at 100 mg/kg, qd; assay type: functional, organism-based
[6] = Toxicity in mouse xenografted with human 92-1 cells assessed as body weight loss at 100 mg/kg, qd measured upto 15 days; assay type: organism-based; conditions: in vivo, 360 h, time < 15 day
[7] = Toxicity in mouse xenografted with human 92-1 cells assessed as abdominal distention at 100 mg/kg, qd after 1 week; assay type: organism-based; conditions: in vivo, 168 h, time 1 weeks
[8] = Toxicity in mouse xenografted with human 92-1 cells assessed as enlarged GI track at 100 mg/kg, qd measured upto 15 days; assay type: organism-based; conditions: in vivo, 360 h, time < 15 day
[9] = target: Protein kinase C alpha type (Homo sapiens, UniProt P17252); assay: Inhibition of PKCalpha (unknown origin) incubated for 15 mins in presence of 33P-ATP by Topcount scintillation counting method
[10] = target: T2, Protein kinase C theta type (Homo sapiens, UniProt Q04759); assay: Inhibition of PKCtheta (unknown origin) incubated for 15 mins in presence of 33P-ATP by Topcount scintillation counting method
[11] = target: Protein kinase C gamma type (Homo sapiens, UniProt P05129); assay: Inhibition of PKCgamma (unknown origin)
[12] = target: T2, Protein kinase C theta type; assay: Inhibition of PKCtheta (unknown origin)
SK-MEL-28 = assay: cells; conditions: Homo sapiens
[13] = target: Protein kinase C eta type (Homo sapiens, UniProt P24723); assay: Inhibition of PKCeta (unknown origin)
[14] = target: Protein kinase C delta type (Homo sapiens, UniProt Q05655); assay: Inhibition of PKCdelta (unknown origin)
92-1 [15] = assay: Antitumor activity against human 92-1 cells xenografted in mouse assessed as tumor suppression at 120 mg/kg, bid; assay type: functional, organism-based
[16] = target: T3, Protein kinase C epsilon type (Homo sapiens, UniProt Q02156); assay: Inhibition of PKCepsilon (unknown origin)
T3 sequence (Q02156 whole entry): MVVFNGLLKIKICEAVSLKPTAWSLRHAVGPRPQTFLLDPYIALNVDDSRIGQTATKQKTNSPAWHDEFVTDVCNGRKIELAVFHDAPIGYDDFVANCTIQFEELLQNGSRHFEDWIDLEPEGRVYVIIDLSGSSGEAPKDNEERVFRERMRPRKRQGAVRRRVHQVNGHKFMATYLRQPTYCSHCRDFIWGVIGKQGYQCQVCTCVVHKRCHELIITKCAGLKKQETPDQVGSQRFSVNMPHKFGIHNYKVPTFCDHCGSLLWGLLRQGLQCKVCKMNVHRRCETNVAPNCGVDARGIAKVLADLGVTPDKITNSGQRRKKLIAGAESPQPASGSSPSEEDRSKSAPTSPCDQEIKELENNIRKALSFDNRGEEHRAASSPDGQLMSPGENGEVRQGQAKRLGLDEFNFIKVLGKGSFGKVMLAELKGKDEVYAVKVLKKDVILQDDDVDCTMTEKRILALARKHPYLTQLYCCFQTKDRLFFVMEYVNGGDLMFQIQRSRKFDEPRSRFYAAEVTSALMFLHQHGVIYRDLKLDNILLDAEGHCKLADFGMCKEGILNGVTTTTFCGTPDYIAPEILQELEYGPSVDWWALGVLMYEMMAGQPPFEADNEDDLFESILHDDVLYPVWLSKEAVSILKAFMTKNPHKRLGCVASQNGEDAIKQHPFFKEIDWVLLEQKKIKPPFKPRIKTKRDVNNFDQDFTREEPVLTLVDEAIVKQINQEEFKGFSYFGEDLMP

T2 sequence (Q04759 whole entry): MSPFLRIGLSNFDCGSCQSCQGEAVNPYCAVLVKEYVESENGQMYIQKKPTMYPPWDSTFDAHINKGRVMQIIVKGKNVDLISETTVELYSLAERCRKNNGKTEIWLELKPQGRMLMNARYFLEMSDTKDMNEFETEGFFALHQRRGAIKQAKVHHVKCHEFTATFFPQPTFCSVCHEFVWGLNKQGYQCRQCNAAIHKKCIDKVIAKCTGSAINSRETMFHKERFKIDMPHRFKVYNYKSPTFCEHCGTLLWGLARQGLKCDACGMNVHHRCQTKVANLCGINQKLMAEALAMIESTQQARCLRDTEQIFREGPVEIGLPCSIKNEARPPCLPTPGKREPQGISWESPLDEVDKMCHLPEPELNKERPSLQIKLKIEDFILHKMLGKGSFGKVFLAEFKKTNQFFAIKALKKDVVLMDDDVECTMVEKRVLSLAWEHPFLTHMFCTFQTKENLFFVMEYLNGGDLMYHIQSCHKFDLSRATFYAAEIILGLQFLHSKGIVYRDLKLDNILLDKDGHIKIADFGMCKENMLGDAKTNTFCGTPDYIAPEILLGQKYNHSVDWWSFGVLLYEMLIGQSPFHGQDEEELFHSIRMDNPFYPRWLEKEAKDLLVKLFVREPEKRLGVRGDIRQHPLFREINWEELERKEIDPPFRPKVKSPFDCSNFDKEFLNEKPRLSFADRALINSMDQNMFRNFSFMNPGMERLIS
5-hydroxytryptamine receptor 2B, sequence (P41595 whole entry): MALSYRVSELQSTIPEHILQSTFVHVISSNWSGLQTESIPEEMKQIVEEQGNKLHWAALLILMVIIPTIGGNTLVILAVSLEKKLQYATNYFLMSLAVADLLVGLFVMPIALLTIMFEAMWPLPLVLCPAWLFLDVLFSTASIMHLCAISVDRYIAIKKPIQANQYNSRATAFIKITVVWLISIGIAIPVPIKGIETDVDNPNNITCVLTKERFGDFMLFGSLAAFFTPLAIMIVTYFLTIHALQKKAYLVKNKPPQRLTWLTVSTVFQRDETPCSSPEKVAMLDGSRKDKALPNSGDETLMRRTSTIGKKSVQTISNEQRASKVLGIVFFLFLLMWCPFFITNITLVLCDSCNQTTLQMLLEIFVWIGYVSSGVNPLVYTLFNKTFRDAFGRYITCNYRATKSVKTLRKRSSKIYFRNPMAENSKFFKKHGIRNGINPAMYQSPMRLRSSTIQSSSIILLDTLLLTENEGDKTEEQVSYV
Glycogen synthase kinase-3 beta, sequence (P49841 whole entry): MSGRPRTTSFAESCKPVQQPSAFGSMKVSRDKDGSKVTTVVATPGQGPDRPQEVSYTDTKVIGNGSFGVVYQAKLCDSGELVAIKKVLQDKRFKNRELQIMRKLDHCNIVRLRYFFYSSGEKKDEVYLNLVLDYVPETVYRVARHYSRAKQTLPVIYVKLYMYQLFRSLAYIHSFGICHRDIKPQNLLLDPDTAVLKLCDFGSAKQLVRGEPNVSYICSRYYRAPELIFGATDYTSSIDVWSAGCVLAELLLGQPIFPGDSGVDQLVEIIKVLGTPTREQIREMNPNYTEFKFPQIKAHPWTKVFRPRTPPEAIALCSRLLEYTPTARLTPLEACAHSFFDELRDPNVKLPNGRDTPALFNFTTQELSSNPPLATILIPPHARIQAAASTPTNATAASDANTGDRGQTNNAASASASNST
Protein kinase C eta type, sequence (P24723 whole entry): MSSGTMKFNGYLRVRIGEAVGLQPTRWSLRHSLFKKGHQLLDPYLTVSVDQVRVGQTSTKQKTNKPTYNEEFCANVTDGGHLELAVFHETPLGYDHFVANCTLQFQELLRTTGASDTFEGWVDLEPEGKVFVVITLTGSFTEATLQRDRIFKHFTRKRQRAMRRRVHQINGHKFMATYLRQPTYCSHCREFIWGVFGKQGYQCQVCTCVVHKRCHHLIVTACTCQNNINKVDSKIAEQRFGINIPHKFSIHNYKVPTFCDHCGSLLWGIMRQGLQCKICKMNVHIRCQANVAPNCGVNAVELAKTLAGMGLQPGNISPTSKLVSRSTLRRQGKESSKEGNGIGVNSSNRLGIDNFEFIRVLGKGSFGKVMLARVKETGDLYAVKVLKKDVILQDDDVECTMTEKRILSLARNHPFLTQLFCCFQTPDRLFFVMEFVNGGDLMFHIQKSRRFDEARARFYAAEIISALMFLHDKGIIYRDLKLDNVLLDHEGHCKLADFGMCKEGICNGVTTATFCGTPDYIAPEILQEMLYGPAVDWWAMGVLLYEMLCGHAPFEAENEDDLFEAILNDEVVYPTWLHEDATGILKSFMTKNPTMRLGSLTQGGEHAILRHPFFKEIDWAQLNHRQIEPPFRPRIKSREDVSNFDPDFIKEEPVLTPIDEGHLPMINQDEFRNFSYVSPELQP
Protein kinase C delta type, sequence (Q05655 whole entry): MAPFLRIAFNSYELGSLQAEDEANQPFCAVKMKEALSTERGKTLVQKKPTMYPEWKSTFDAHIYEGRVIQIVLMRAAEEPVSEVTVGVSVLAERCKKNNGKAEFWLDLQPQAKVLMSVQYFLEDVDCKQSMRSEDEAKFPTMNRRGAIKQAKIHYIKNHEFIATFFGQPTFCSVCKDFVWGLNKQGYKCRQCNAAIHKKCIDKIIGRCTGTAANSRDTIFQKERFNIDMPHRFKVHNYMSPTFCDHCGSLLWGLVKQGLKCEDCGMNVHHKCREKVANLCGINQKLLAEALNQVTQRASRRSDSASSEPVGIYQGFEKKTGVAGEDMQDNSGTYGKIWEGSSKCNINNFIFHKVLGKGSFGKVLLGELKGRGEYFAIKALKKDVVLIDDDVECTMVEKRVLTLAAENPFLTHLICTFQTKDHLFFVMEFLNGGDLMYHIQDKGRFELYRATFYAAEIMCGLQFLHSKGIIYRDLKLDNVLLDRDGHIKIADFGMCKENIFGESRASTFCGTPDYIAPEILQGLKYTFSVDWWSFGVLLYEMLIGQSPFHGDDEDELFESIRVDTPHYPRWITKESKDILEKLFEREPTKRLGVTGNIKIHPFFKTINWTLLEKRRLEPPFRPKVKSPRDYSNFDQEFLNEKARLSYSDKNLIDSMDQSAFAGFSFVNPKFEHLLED

| Compound | EC50 [1] | EC50 (cells) | IC50 [3] | IC50 [4] | IC50 [10] | also measured |
| --- | --- | --- | --- | --- | --- | --- |
| Nc1ncc(-c2ncccc2F)nc1C(=O)Nc1ncccc1N1CCC(N)CC1 | 0.041 µM | – | – | – | – | – |
| Nc1ncc(-c2nc(N3CCOCC3)cc3ccccc23)nc1C(=O)Nc1ncccc1N1CCC(N)CC1 | 0.16 µM | 0.022 µM | – | – | – | – |
| COC1CN(c2cccnc2NC(=O)c2nc(-c3ncccc3OC(F)(F)F)cnc2N)CCC1N (trans isomer) | > 30 µM | 2.8 µM | – | – | – | pKa [2]: 8 |
| Nc1ncc(-c2nc(N3CCC3)ccc2C(F)(F)F)nc1C(=O)Nc1ncccc1N1CCC(N)CC1 | – | – | 0.14 µM | 2.9 µM | – | – |
| Nc1ncc(-c2ncccc2OC(F)(F)F)nc1C(=O)Nc1cnccc1N1CCC(N)CC1 | – | 0.036 µM | 0.23 µM | 0.01 µM | – | Activity (92-1 [5]): Active; Activity [6]: Toxic; Activity [7]: Toxic; Activity [8]: Toxic |
| Nc1ncc(-c2ncccc2OC(F)(F)F)nc1C(=O)Nc1ncccc1N1CCC(N)C(F)C1 (stereo not drawn) | 0.043 µM | 0.153 µM | – | – | – | pKa [2]: 7.6 |
| Nc1ncc(-c2ncccc2C(F)(F)F)nc1C(=O)Nc1ncccc1N1CCC(N)CC1 | 0.16 µM | – | 8.7 µM | – | – | – |
| Nc1ncc(-c2ncccc2C(F)(F)F)nc1C(=O)Nc1cccnc1N1CCC(N)CC1 | – | 3.66 µM | 3 µM | 6.9 µM | 0.069 µM | IC50 [9]: 0.043 µM |
| Nc1ncc(-c2ncccc2OC(F)(F)F)nc1C(=O)Nc1ccncc1N1CCC(N)CC1 | – | 0.23 µM | 0.03 µM | 0.53 µM | 0.0013 µM | IC50 [9]: 0.0004 µM |
| CO[C@H]1CN(c2ccncc2NC(=O)c2nc(-c3ncccc3OC(F)(F)F)cnc2N)CC[C@@H]1N | – | – | – | – | 0.002 µM | IC50 [9]: 0.0002 µM; IC50 (cells): 0.14 µM |
| Nc1ncc(-c2ncccc2OC(F)(F)F)nc1C(=O)Nc1ncccc1N1CCC(N)CC1 | 0.2 µM | 0.18 µM | 8.46 µM | – | – | pKa [2]: 8.9 |
| CN1CCN(c2nc(C3=C(c4c[nH]c5ccccc45)C(=O)NC3=O)c3ccccc3n2)CC1 [SOTRASTAURIN] | – | – | – | – | 0.0003 µM | IC50 [11]: 0.064 µM; IC50 [12]: 0.0021 µM; IC50 (SK-MEL-28): > 10 µM; IC50 (cells): 0.25 µM; IC50 [13]: 0.0059 µM; IC50 [14]: 0.006 µM; Activity (92-1 [15]): Active; IC50 [16]: 0.0054 µM |
| Nc1ncc(-c2ncnc3sccc23)nc1C(=O)Nc1ncccc1N1CCC(N)CC1 | – | – | 4.1 µM | 0.71 µM | – | – |
| CN(C)c1ccc(C(F)(F)F)c(-c2cnc(N)c(C(=O)Nc3ncccc3N3CCC(N)CC3)n2)n1 | – | 0.066 µM | 0.095 µM | 2.7 µM | – | – |
| Nc1ncc(-c2cccc3[nH]ncc23)nc1C(=O)Nc1ncccc1N1CCC(N)CC1 | – | – | 0.031 µM | 0.041 µM | – | – |
| Nc1ncc(-c2nc(N3CCOCC3)ccc2C(F)(F)F)nc1C(=O)Nc1ncccc1N1CCC(N)CC1 | 0.15 µM | – | 0.23 µM | – | – | – |
| Nc1ncc(-c2cccc3[nH]ccc23)nc1C(=O)Nc1ncccc1N1CCC(N)CC1 | 0.78 µM | 0.011 µM | 0.033 µM | 0.019 µM | – | – |
| CNc1ncc(-c2ncccc2OC(F)(F)F)nc1C(=O)Nc1cnccc1N1CCC(N)CC1 | – | – | – | – | – | IC50 (cells): 3.7 µM; Activity [6]: Non-Toxic; Activity [7]: Non-Toxic; Activity [8]: Non-Toxic |
| Nc1ncc(-c2ncccc2OC(F)(F)F)nc1C(=O)Nc1ncccc1N1CCC(N)C(F)(F)C1 (stereo not drawn) | 2 µM | 1.74 µM | – | – | 0.01 µM | IC50 [9]: 0.011 µM; pKa [2]: 6 |
| Nc1ncc(-c2ncccc2C(F)(F)F)nc1C(=O)Nc1ncccc1N1C[C@H]2CC[C@@H](C1)[C@@H]2N | > 30 µM | 1.39 µM | – | – | 0.003 µM | IC50 [9]: 0.01 µM; pKa [2]: 9.4 |
